Test results as given in PubChem BioAssay (NCI).
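GI50: concentration for 50% inhibition of growth. TGI: concentration producing complete growth inhibition.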

What was measured:
Assay in all cases: NCI anticancer screen, dose series, 384-well format
786-0 renal = tested on: 786-0 renal
A498 renal = tested on: A498 renal
A549 NSCLC = tested on: A549 NSCLC
ACHN renal = tested on: ACHN renal
BT-549 breast = tested on: BT-549 breast
CAKI-1 renal = tested on: CAKI-1 renal
CCRF-CEM leukemia = tested on: CCRF-CEM leukemia
DU-145 prostate = tested on: DU-145 prostate
HCT-116 colon = tested on: HCT-116 colon
HCT-15 colon = tested on: HCT-15 colon
HL-60(TB) leukemia = tested on: HL-60(TB) leukemia
HOP-92 NSCLC = tested on: HOP-92 NSCLC
HS 578T breast = tested on: HS 578T breast
HT29 colon = tested on: HT29 colon
IGROV1 ovarian = tested on: IGROV1 ovarian
K-562 leukemia = tested on: K-562 leukemia
KM12 colon = tested on: KM12 colon
LOX IMVI melanoma = tested on: LOX IMVI melanoma
M14 melanoma = tested on: M14 melanoma
MALME-3M melanoma = tested on: MALME-3M melanoma
MDA-MB-231 breast = tested on: MDA-MB-231 breast
MDA-MB-435 melanoma = tested on: MDA-MB-435 melanoma
MDA-MB-468 breast = tested on: MDA-MB-468 breast
MOLT-4 leukemia = tested on: MOLT-4 leukemia
NCI-H23 lung = tested on: NCI-H23 lung
NCI-H322M lung = tested on: NCI-H322M lung
NCI/ADR-RES ovarian = tested on: NCI/ADR-RES ovarian
OVCAR-4 ovarian = tested on: OVCAR-4 ovarian
OVCAR-5 ovarian = tested on: OVCAR-5 ovarian
OVCAR-8 ovarian = tested on: OVCAR-8 ovarian
PC-3 prostate = tested on: PC-3 prostate
RXF 393 renal = tested on: RXF 393 renal
SF-268 CNS = tested on: SF-268 CNS
SF-295 CNS = tested on: SF-295 CNS
SF-539 CNS = tested on: SF-539 CNS
SK-MEL-28 melanoma = tested on: SK-MEL-28 melanoma
SK-OV-3 ovarian = tested on: SK-OV-3 ovarian
SN12C renal = tested on: SN12C renal
SNB-19 CNS = tested on: SNB-19 CNS
SNB-75 CNS = tested on: SNB-75 CNS
SW-620 colon = tested on: SW-620 colon
T-47D breast = tested on: T-47D breast
TK-10 renal = tested on: TK-10 renal
U251 glioblastoma = tested on: U251 glioblastoma
UACC-62 melanoma = tested on: UACC-62 melanoma
UO-31 renal = tested on: UO-31 renal
COLO 205 colon = tested on: COLO 205 colon
EKVX NSCLC = tested on: EKVX NSCLC
HCC-2998 colon = tested on: HCC-2998 colon
HOP-62 NSCLC = tested on: HOP-62 NSCLC
MCF7 breast = tested on: MCF7 breast
NCI-H226 lung = tested on: NCI-H226 lung
NCI-H460 NSCLC = tested on: NCI-H460 NSCLC
NCI-H522 lung = tested on: NCI-H522 lung
OVCAR-3 ovarian = tested on: OVCAR-3 ovarian
RPMI-8226 leukemia = tested on: RPMI-8226 leukemia
SK-MEL-5 melanoma = tested on: SK-MEL-5 melanoma
SR leukemia = tested on: SR leukemia
UACC-257 melanoma = tested on: UACC-257 melanoma

## O=c1[nH]c(=O)n(C2CC(O)C(CO)O2)cc1F (configuration not stated)
786-0 renal
  GI50: 69.9 nM
A498 renal
  TGI: 59.5 µM
A549 NSCLC
  GI50: 31.8 nM
ACHN renal
  GI50: 30.2 nM
BT-549 breast
  TGI: 2780 nM
CAKI-1 renal
  GI50: 69.5 nM
CCRF-CEM leukemia
  GI50: 23.8 nM
  TGI: 97.2 nM
DU-145 prostate
  GI50: 35.9 nM
HCT-116 colon
  GI50: 52.9 nM
  TGI: 40.6 µM
HCT-15 colon
  GI50: 55.1 nM
HL-60(TB) leukemia
  GI50: 25.5 nM
  TGI: 115 nM
HOP-92 NSCLC
  GI50: 2480 nM
HS 578T breast
  GI50: 28.2 nM
  TGI: 171 nM
HT29 colon
  GI50: 53.9 nM
IGROV1 ovarian
  GI50: 559 nM
K-562 leukemia
  GI50: 351 nM
  TGI: 9.4 µM
KM12 colon
  GI50: 844 nM
LOX IMVI melanoma
  GI50: 35.4 nM
M14 melanoma
  GI50: 104 nM
MALME-3M melanoma
  GI50: 3.99 µM
MDA-MB-231 breast
  GI50: 444 nM
MDA-MB-435 melanoma
  GI50: 1380 nM
MDA-MB-468 breast
  GI50: 13.7 nM
  TGI: 53.7 nM
MOLT-4 leukemia
  TGI: 15.7 nM
NCI-H23 lung
  GI50: 112 nM
NCI-H322M lung
  GI50: 345 nM
NCI/ADR-RES ovarian
  GI50: 214 nM
OVCAR-4 ovarian
  GI50: 27.4 µM
OVCAR-5 ovarian
  GI50: 321 nM
OVCAR-8 ovarian
  GI50: 79.8 nM
PC-3 prostate
  GI50: 90.4 nM
RXF 393 renal
  GI50: 2920 nM
  TGI: 25.9 µM
SF-268 CNS
  GI50: 13 nM
SF-295 CNS
  GI50: 13.2 nM
  TGI: 53.2 nM
SF-539 CNS
  GI50: 11.2 nM
  TGI: 102 nM
SK-MEL-28 melanoma
  GI50: 101 nM
  TGI: 3.61 µM
SK-OV-3 ovarian
  GI50: 112 nM
SN12C renal
  GI50: 28.9 nM
  TGI: 0.238 µM
SNB-19 CNS
  GI50: 39.4 nM
SNB-75 CNS
  GI50: 16.9 nM
SW-620 colon
  GI50: 28.7 nM
T-47D breast
  GI50: 11.5 µM
TK-10 renal
  GI50: 721 nM
U251 glioblastoma
  GI50: 112 nM
UACC-62 melanoma
  GI50: 177 nM
UO-31 renal
  GI50: 26.1 nM

## O=C(Cc1ccc(-c2ccc(OCCN3CCOCC3)cc2)cn1)NCc1ccccc1
786-0 renal
  GI50: 32.3 nM
  TGI: 220 nM
A498 renal
  GI50: 31.8 nM
  TGI: 0.625 µM
A549 NSCLC
  GI50: 50.2 nM
  TGI: > 100 µM
ACHN renal
  GI50: 80.1 nM
  TGI: 45.1 µM
BT-549 breast
  GI50: 28.3 nM
  TGI: 179 nM
CAKI-1 renal
  GI50: 40.1 nM
  TGI: > 100 µM
CCRF-CEM leukemia
  GI50: 18.4 nM
  TGI: 33.3 nM
COLO 205 colon
  GI50: 16.3 nM
  TGI: 34.5 nM
DU-145 prostate
  GI50: 30.2 nM
  TGI: 174 nM
EKVX NSCLC
  GI50: 42.4 nM
  TGI: 99.4 µM
HCC-2998 colon
  GI50: 20.4 nM
  TGI: 133 nM
HCT-116 colon
  GI50: 31.8 nM
  TGI: 0.709 µM
HCT-15 colon
  GI50: 32.1 nM
  TGI: 163 nM
HL-60(TB) leukemia
  GI50: 16.1 nM
  TGI: 29.7 nM
HOP-62 NSCLC
  GI50: 29.8 nM
  TGI: 3.42 µM
HOP-92 NSCLC
  GI50: 38.1 nM
  TGI: 2950 nM
HS 578T breast
  GI50: 18.6 nM
  TGI: 38.9 nM
HT29 colon
  GI50: 28.3 nM
  TGI: > 100 µM
IGROV1 ovarian
  GI50: 61.2 nM
  TGI: 54.4 µM
K-562 leukemia
  GI50: 19.8 nM
  TGI: 0.0541 µM
KM12 colon
  GI50: 30 nM
  TGI: 2010 nM
LOX IMVI melanoma
  GI50: 49.8 nM
  TGI: 298 nM
M14 melanoma
  GI50: 18.5 nM
  TGI: 42.2 nM
MCF7 breast
  GI50: 49.9 nM
  TGI: 7.19 µM
MDA-MB-231 breast
  GI50: 53.2 nM
  TGI: > 100 µM
MDA-MB-435 melanoma
  GI50: 15.1 nM
  TGI: 30.7 nM
MDA-MB-468 breast
  GI50: 15.6 nM
  TGI: 30.6 nM
MOLT-4 leukemia
  GI50: 15.3 nM
  TGI: 29.8 nM
NCI-H226 lung
  GI50: 34.6 nM
  TGI: 220 nM
NCI-H23 lung
  GI50: 22.8 nM
  TGI: 60.3 nM
NCI-H322M lung
  GI50: 38.1 nM
  TGI: 71.6 µM
NCI-H460 NSCLC
  GI50: 20.2 nM
  TGI: 45.4 nM
NCI-H522 lung
  GI50: 17.6 nM
  TGI: 44.9 nM
NCI/ADR-RES ovarian
  GI50: 17.7 nM
  TGI: 39.3 nM
OVCAR-3 ovarian
  GI50: 17.4 nM
  TGI: 41.7 nM
OVCAR-4 ovarian
  GI50: 0.0411 µM
  TGI: 39.7 µM
OVCAR-5 ovarian
  GI50: 80 nM
  TGI: > 100 µM
OVCAR-8 ovarian
  GI50: 31.4 nM
  TGI: 134 nM
PC-3 prostate
  GI50: 34.5 nM
  TGI: > 100 µM
RPMI-8226 leukemia
  GI50: 14.2 nM
  TGI: 27.7 nM
RXF 393 renal
  GI50: 17.5 nM
  TGI: 0.0397 µM
SF-268 CNS
  GI50: 35.2 nM
  TGI: 513 nM
SF-295 CNS
  GI50: 15.7 nM
  TGI: 38 nM
SF-539 CNS
  GI50: 21.4 nM
  TGI: 53.7 nM
SK-MEL-28 melanoma
  GI50: 38.6 nM
  TGI: > 100 µM
SK-MEL-5 melanoma
  GI50: 20.3 nM
  TGI: 46.6 nM
SK-OV-3 ovarian
  GI50: 32.7 nM
  TGI: 2670 nM
SN12C renal
  GI50: 38.9 nM
  TGI: 16.6 µM
SNB-19 CNS
  GI50: 41.3 nM
  TGI: 3.11 µM
SR leukemia
  GI50: 12.3 nM
  TGI: 25.6 nM
SW-620 colon
  GI50: 30.7 nM
  TGI: > 100 µM
TK-10 renal
  GI50: 39.9 nM
  TGI: 45.9 µM
U251 glioblastoma
  GI50: 32 nM
  TGI: 150 nM
UACC-257 melanoma
  GI50: 45.7 nM
  TGI: 43.7 µM
UO-31 renal
  GI50: 66.5 nM
  TGI: > 100 µM
